Assay results taken from patent US20250368649A1, “TETRAHYDROPYRIDOPYRIMIDINE PAN-KRAS INHIBITORS” (Mirati Therapeutics, Inc., priority 2022, published 2025).

Columns and labels:
MKN1 cells = experiment: Inhibition of KRas-mediated phosphorylation of ERK (Cisbio HTRF pERK), MKN1 cells; assay type: cell-based; settings: Homo sapiens, MKN-1, 3 hour compound incubation, Cisbio pERK HTRF
How it was run: (§1)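 On the first day, plate 6,000 cells into each well in RPMI medium with 10% fetal bovine serum.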

KRas G13D = KRas G13D (Homo sapiens, UniProt P01116, G13D); assay type: binding; settings: single point, 10 nM compound, read-out: Binding to KRas (% inhibition at 10 nM) G13D
KRas G12D = KRas G12D (Homo sapiens, UniProt P01116, G12D); experiment: biochemical; settings: Binding to KRas (IC50 nM) G12D, TR-FRET displacement, KRas G12D
ASPC1 cells = experiment: Inhibition of KRas-mediated phosphorylation of ERK (Cisbio HTRF pERK), ASPC1 cells; assay type: cell-based; settings: Homo sapiens, AsPC-1 cells; for IC50: ASPC1, 3 h, 3 hr compound incubation, Cisbio pERK HTRF; for inhibition at 0.1 µM: ASPC1, single point at 100 nM, 3 hrs compound incubation
KRas G12S = KRas G12S (Homo sapiens, UniProt P01116, G12S); assay type: binding; settings: single point, 10 nM compound, read-out: Binding to KRas (% inhibition at 10 nM) G12S
KRas WT = KRas WT (Homo sapiens, UniProt P01116); experiment: KRas binding assay (TR-FRET displacement), KRas WT; settings: single point, 10 nM compound
H358 cells = experiment: Inhibition of KRas-mediated phosphorylation of ERK (Cisbio HTRF pERK), H358 cells; assay type: cell-based; settings: Homo sapiens; for IC50: NCI-H358, 3 h, 3 hr compound incubation, Cisbio pERK HTRF; for inhibition at 0.1 µM: NCI-H358, single point at 100 nM, 3 hrs compound incubation
PSN1 cells = experiment: Inhibition of KRas-mediated phosphorylation of ERK (Cisbio HTRF pERK), PSN1 cells; assay type: cell-based; settings: Homo sapiens, PSN1, 3 h, 3 hour compound incubation, Cisbio pERK HTRF
How it was run: as §1

KRas G12C = KRas G12C (Homo sapiens, UniProt P01116, G12C); assay type: binding; settings: single point, 10 nM compound, read-out: Binding to KRas (% inhibition at 10 nM) G12C
HCT116 cells = experiment: Inhibition of KRas-mediated phosphorylation of ERK (Cisbio HTRF pERK), HCT116 cells; assay type: cell-based; settings: Homo sapiens; for IC50: HCT-116, 3 h, 3 hr compound incubation, Cisbio pERK HTRF; for inhibition at 0.1 µM: HCT-116, single point at 100 nM, 3 hrs compound incubation
H727 cells = experiment: Inhibition of KRas-mediated phosphorylation of ERK (Cisbio HTRF pERK), H727 cells; assay type: cell-based; settings: Homo sapiens; for IC50: NCI-H727, 3 h, 3 hr compound incubation, Cisbio pERK HTRF; for inhibition at 0.1 µM: NCI-H727, single point at 100 nM, 3 hrs compound incubation
H460 cells = experiment: Inhibition of KRas-mediated phosphorylation of ERK (Cisbio HTRF pERK), H460 cells; assay type: cell-based; settings: Homo sapiens; for IC50: NCI-H460, 3 h, 3 hr compound incubation, Cisbio pERK HTRF; for inhibition at 0.1 µM: NCI-H460, single point at 100 nM, 3 hrs compound incubation
KRas G12R = KRas G12R (Homo sapiens, UniProt P01116, G12R); experiment: biochemical; settings: Binding to KRas (IC50 nM) G12R, TR-FRET displacement, KRas G12R
KRas G12A = KRas G12A (Homo sapiens, UniProt P01116, G12A); assay type: binding; settings: single point, 10 nM compound, read-out: Binding to KRas (% inhibition at 10 nM) G12A
A549 cells = experiment: Inhibition of KRas-mediated phosphorylation of ERK (Cisbio HTRF pERK), A549 cells; assay type: cell-based; settings: Homo sapiens; for IC50: A549, 3 h, 3 hr compound incubation, Cisbio pERK HTRF; for inhibition at 0.1 µM: single point at 100 nM, 3 hrs compound incubation
KRas G12V = KRas G12V (Homo sapiens, UniProt P01116, G12V); experiment: biochemical; settings: Binding to KRas (IC50 nM) G12V, TR-FRET displacement, KRas G12V
KRas Q61H = KRas Q61H (Homo sapiens, UniProt P01116, Q61H); experiment: KRas binding assay (TR-FRET displacement), KRas Q61H; settings: single point, 10 nM compound
KRas Q61H, sequence (P01116 1-169 isoform P01116-2 Q61H): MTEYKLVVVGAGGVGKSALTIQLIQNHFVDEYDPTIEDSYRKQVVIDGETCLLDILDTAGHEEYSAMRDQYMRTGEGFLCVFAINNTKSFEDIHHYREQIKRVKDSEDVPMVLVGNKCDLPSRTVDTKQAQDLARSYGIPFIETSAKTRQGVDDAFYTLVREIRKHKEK

KRas G12R, sequence (P01116 1-169 isoform P01116-2 G12R): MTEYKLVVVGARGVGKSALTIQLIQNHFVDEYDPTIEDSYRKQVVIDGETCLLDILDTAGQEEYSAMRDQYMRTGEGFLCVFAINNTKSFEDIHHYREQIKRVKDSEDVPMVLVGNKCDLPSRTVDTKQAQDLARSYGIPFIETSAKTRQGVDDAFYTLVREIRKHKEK
KRas G12S, sequence (P01116 1-169 isoform P01116-2 G12S): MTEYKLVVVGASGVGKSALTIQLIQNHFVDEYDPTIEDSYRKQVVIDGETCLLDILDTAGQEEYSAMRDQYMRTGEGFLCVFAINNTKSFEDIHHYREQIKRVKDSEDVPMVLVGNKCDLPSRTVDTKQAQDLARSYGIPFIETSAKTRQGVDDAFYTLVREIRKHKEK
KRas G12D, sequence (P01116 1-169 isoform P01116-2 G12D): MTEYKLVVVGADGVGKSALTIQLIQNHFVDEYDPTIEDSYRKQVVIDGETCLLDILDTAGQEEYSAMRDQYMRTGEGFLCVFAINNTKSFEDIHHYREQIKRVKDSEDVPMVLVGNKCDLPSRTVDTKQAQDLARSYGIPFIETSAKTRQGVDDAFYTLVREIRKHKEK
KRas WT, sequence (P01116 1-169 isoform P01116-2): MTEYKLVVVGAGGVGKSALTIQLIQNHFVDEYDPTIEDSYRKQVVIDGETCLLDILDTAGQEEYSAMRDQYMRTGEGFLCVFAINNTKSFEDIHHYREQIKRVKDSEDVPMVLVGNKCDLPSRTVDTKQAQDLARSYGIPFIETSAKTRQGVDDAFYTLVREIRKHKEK
KRas G12V, sequence (P01116 1-169 isoform P01116-2 G12V): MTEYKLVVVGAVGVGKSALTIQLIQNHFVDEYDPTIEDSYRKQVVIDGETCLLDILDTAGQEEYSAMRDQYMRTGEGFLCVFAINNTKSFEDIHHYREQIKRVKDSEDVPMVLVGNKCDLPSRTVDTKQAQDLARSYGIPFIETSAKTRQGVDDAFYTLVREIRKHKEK
KRas G12C, sequence (P01116 1-169 isoform P01116-2 G12C): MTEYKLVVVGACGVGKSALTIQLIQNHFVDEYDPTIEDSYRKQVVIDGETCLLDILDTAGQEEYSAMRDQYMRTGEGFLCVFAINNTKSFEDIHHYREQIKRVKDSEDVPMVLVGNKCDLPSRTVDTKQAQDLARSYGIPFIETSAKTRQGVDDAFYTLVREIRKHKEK
KRas G13D, sequence (P01116 1-169 isoform P01116-2 G13D): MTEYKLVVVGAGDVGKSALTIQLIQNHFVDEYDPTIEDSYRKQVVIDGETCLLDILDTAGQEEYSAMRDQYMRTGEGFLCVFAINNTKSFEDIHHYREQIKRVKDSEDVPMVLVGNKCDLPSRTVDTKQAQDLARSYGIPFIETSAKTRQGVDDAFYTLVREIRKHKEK
KRas G12A, sequence (P01116 1-169 isoform P01116-2 G12A): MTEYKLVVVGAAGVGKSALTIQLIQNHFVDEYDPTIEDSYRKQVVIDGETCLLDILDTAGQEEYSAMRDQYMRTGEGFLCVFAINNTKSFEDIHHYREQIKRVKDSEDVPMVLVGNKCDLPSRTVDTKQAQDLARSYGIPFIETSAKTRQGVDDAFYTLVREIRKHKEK

## CCc1c(F)ccc2cc(O)cc(N3CCc4c(nc(OC[C@@]56CCCN5C[C@H](F)C6)nc4N4CCCn5nc(C(=O)N6CC7CC6C7)cc5C4)C3)c12 [Example 342, 2-azabicyclo[2.1.1]hexan-2-yl(5-(7-(8-ethyl-7-fluoro-3-hydroxynaphthalen-1-yl)-2-(((2R,7aS)-2-fluorohexahydro-1H-pyrrolizin-7a-yl)methoxy)-5,6,7,8-tetrahydropyrido[3,4-d]pyrimidin-4-yl)-5,6,7,8-tetrahydro-4H-pyrazolo[1,5-a][1,4]diazepin-2-yl)methanone]
MKN1 cells
  IC50: 3.9 nM
KRas G13D
  inhibition at 0.01 µM: 96%
KRas G12D
  IC50: < 2 nM
ASPC1 cells
  IC50: 2 nM
  inhibition at 0.1 µM: 96%
KRas G12S
  inhibition at 0.01 µM: 99%
KRas WT
  inhibition at 0.01 µM: 96%
H358 cells
  IC50: 2 nM
  inhibition at 0.1 µM: 100%
PSN1 cells
  IC50: 2400 nM
KRas G12C
  inhibition at 0.01 µM: 99%
HCT116 cells
  IC50: 74 nM
  inhibition at 0.1 µM: 59%
H727 cells
  IC50: 4 nM
  inhibition at 0.1 µM: 80%
H460 cells
  IC50: 23 nM
  inhibition at 0.1 µM: 86%
KRas G12R
  IC50: < 2 nM
KRas G12A
  inhibition at 0.01 µM: 96%
A549 cells
  IC50: 8 nM
  inhibition at 0.1 µM: 87%
KRas G12V
  IC50: < 2 nM
KRas Q61H
  inhibition at 0.01 µM: 96%

## CCc1c(F)ccc2cc(O)cc(N3CCc4c(nc(OC[C@@]56CCCN5C[C@H](F)C6)nc4N4CCCn5nc(C(=O)NC(C)C)c(C)c5C4)C3)c12 [Example 371, 5-(7-(8-ethyl-7-fluoro-3-hydroxynaphthalen-1-yl)-2-(((2R,7aS)-2-fluorohexahydro-1H-pyrrolizin-7a-yl)methoxy)-5,6,7,8-tetrahydropyrido[3,4-d]pyrimidin-4-yl)-N-isopropyl-3-methyl-5,6,7,8-tetrahydro-4H-pyrazolo[1,5-a][1,4]diazepine-2-carboxamide]
MKN1 cells
  IC50: 9.9 nM
KRas G13D
  inhibition at 0.01 µM: 87%
KRas G12D
  IC50: 2 nM
ASPC1 cells
  IC50: 3 nM
KRas G12S
  inhibition at 0.01 µM: 96%
KRas WT
  inhibition at 0.01 µM: 86%
H358 cells
  IC50: 3 nM
  inhibition at 0.1 µM: 101%
PSN1 cells
  IC50: 5080 nM
KRas G12C
  inhibition at 0.01 µM: 98%
HCT116 cells
  IC50: 187 nM
H727 cells
  IC50: 5 nM
H460 cells
  IC50: 35 nM
KRas G12R
  IC50: < 2 nM
KRas G12A
  inhibition at 0.01 µM: 91%
A549 cells
  IC50: 9 nM
  inhibition at 0.1 µM: 79%
KRas G12V
  IC50: < 2 nM
KRas Q61H
  inhibition at 0.01 µM: 89%

## CCc1c(F)ccc2cc(O)cc(N3CCc4c(nc(OC[C@@]56CCCN5C[C@H](F)C6)nc4N4CCCn5nc(C(=O)N(C)C6CC6)cc5C4)C3)c12 [Example 383, N-cyclopropyl-5-(7-(8-ethyl-7-fluoro-3-hydroxynaphthalen-1-yl)-2-(((2R,7aS)-2-fluorohexahydro-1H-pyrrolizin-7a-yl)methoxy)-5,6,7,8-tetrahydropyrido[3,4-d]pyrimidin-4-yl)-N-methyl-5,6,7,8-tetrahydro-4H-pyrazolo[1,5-a][1,4]diazepine-2-carboxamide]
MKN1 cells
  IC50: 7.8 nM
KRas G13D
  inhibition at 0.01 µM: 97%
KRas G12D
  IC50: < 2 nM
ASPC1 cells
  IC50: 1 nM
  inhibition at 0.1 µM: 97%
KRas G12S
  inhibition at 0.01 µM: 99%
KRas WT
  inhibition at 0.01 µM: 97%
H358 cells
  IC50: 2 nM
  inhibition at 0.1 µM: 98%
PSN1 cells
  IC50: 3680 nM
KRas G12C
  inhibition at 0.01 µM: 99%
HCT116 cells
  IC50: 73 nM
H727 cells
  IC50: 2 nM
  inhibition at 0.1 µM: 85%
H460 cells
  IC50: 13 nM
KRas G12R
  IC50: < 2 nM
KRas G12A
  inhibition at 0.01 µM: 96%
A549 cells
  IC50: 5 nM
  inhibition at 0.1 µM: 90%
KRas G12V
  IC50: < 2 nM
KRas Q61H
  inhibition at 0.01 µM: 98%

## CCc1c(C(=O)N(C)C)nn2c1CN(c1nc(OC[C@@]34CCCN3C[C@H](F)C4)nc3c1CCN(c1cc(O)cc4ccc(F)c(CC)c14)C3)CCC2 [Example 372, 3-ethyl-5-(7-(8-ethyl-7-fluoro-3-hydroxynaphthalen-1-yl)-2-(((2R,7aS)-2-fluorohexahydro-1H-pyrrolizin-7a-yl)methoxy)-5,6,7,8-tetrahydropyrido[3,4-d]pyrimidin-4-yl)-N,N-dimethyl-5,6,7,8-tetrahydro-4H-pyrazolo[1,5-a][1,4]diazepine-2-carboxamide]
MKN1 cells
  IC50: 3.1 nM
KRas G13D
  inhibition at 0.01 µM: 98%
KRas G12D
  IC50: < 2 nM
ASPC1 cells
  IC50: 2 nM
  inhibition at 0.1 µM: 95%
KRas G12S
  inhibition at 0.01 µM: 99%
KRas WT
  inhibition at 0.01 µM: 98%
H358 cells
  IC50: 2 nM
  inhibition at 0.1 µM: 104%
PSN1 cells
  IC50: 2010 nM
KRas G12C
  inhibition at 0.01 µM: 99%
HCT116 cells
  IC50: 54 nM
H727 cells
  IC50: 5 nM
  inhibition at 0.1 µM: 76%
H460 cells
  IC50: 11 nM
KRas G12R
  IC50: < 2 nM
KRas G12A
  inhibition at 0.01 µM: 99%
A549 cells
  IC50: 10 nM
  inhibition at 0.1 µM: 72%
KRas G12V
  IC50: < 2 nM
KRas Q61H
  inhibition at 0.01 µM: 99%

## CCc1c(F)ccc2cc(O)cc(N3CCc4c(nc(OC[C@@]56CCCN5C[C@H](F)C6)nc4N4CCCn5nc(C(=O)N6CCN7CC(O)CC7C6)cc5C4)C3)c12 (stereo partly drawn) [Example 257, (5-(7-(8-ethyl-7-fluoro-3-hydroxynaphthalen-1-yl)-2-(((2R,7aS)-2-fluorotetrahydro-1H-pyrrolizin-7a(5H)-yl)methoxy)-5,6,7,8-tetrahydropyrido[3,4-d]pyrimidin-4-yl)-5,6,7,8-tetrahydro-4H-pyrazolo[1,5-a][1,4]diazepin-2-yl)(7-hydroxyhexahydropyrrolo[1,2-a]pyrazin-2(1H)-yl)methanone]
MKN1 cells
  IC50: 1.2 nM
KRas G13D
  inhibition at 0.01 µM: 98%
KRas G12D
  IC50: < 2 nM
ASPC1 cells
  IC50: 31 nM
  inhibition at 0.1 µM: 77%
KRas G12S
  inhibition at 0.01 µM: 99%
KRas WT
  inhibition at 0.01 µM: 98%
H358 cells
  inhibition at 0.1 µM: 95%
PSN1 cells
  IC50: > 10000 nM
KRas G12C
  inhibition at 0.01 µM: 99%
HCT116 cells
  inhibition at 0.1 µM: 8%
H727 cells
  IC50: 55 nM
  inhibition at 0.1 µM: 36%
H460 cells
  inhibition at 0.1 µM: 21%
KRas G12R
  IC50: < 2 nM
KRas G12A
  inhibition at 0.01 µM: 97%
A549 cells
  inhibition at 0.1 µM: 35%
KRas G12V
  IC50: < 2 nM
KRas Q61H
  inhibition at 0.01 µM: 100%

## CCc1c(F)ccc2cc(O)cc(N3CCc4c(nc(OC[C@@]56CCCN5C[C@H](F)C6)nc4N4CCCn5nc(C(=O)NC)c(C)c5C4)C3)c12 [Example 380, 5-(7-(8-ethyl-7-fluoro-3-hydroxynaphthalen-1-yl)-2-(((2R,7aS)-2-fluorohexahydro-1H-pyrrolizin-7a-yl)methoxy)-5,6,7,8-tetrahydropyrido[3,4-d]pyrimidin-4-yl)-N,3-dimethyl-5,6,7,8-tetrahydro-4H-pyrazolo[1,5-a][1,4]diazepine-2-carboxamide]
MKN1 cells
  IC50: 10.8 nM
KRas G13D
  inhibition at 0.01 µM: 94%
KRas G12D
  IC50: < 2 nM
ASPC1 cells
  IC50: 2 nM
  inhibition at 0.1 µM: 94%
KRas G12S
  inhibition at 0.01 µM: 99%
KRas WT
  inhibition at 0.01 µM: 93%
H358 cells
  IC50: 3 nM
  inhibition at 0.1 µM: 93%
PSN1 cells
  IC50: 4720 nM
KRas G12C
  inhibition at 0.01 µM: 99%
HCT116 cells
  IC50: 95 nM
H727 cells
  IC50: 5 nM
  inhibition at 0.1 µM: 69%
H460 cells
  IC50: 30 nM
KRas G12R
  IC50: < 2 nM
KRas G12A
  inhibition at 0.01 µM: 96%
A549 cells
  IC50: 2 nM
  inhibition at 0.1 µM: 81%
KRas G12V
  IC50: < 2 nM
KRas Q61H
  inhibition at 0.01 µM: 95%
